{"source": "ChEMBL document CHEMBL4804282", "about": "“Quinoline-based compounds and methods of inhibiting cdk8/19” (2020)", "key": {"[1]": {"molecular_target": "Cyclin-dependent kinase 8 (Homo sapiens) (UniProt P49336)", "sequence (P49336 whole entry)": "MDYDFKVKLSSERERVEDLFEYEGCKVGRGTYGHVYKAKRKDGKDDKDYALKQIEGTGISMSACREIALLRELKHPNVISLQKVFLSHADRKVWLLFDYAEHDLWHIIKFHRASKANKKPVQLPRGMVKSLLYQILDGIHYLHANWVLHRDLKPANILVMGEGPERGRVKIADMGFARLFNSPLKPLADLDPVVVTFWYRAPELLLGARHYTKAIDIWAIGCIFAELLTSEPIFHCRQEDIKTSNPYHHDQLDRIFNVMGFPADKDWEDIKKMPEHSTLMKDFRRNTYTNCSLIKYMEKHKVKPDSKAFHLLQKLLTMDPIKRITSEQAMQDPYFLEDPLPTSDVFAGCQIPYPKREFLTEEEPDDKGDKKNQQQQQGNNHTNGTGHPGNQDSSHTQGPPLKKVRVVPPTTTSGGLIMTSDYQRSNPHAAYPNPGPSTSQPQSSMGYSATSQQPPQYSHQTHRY", "assay": "Inhibition of CDK8 in TNF-alpha-induced HEK293 cells at 1 uM by NF-kappaB reporter assay relative to control", "assay_type": "cell-based"}, "[2]": {"molecular_target": "Cyclin-dependent kinase 8 (Homo sapiens) (UniProt P49336)", "assay": "Inhibition of human CDK8 at 2000 nM by KINOMEscan assay"}, "[3]": {"molecular_target": "Cyclin-dependent kinase 19 (Homo sapiens) (UniProt Q9BWU1)", "sequence (Q9BWU1 whole entry)": "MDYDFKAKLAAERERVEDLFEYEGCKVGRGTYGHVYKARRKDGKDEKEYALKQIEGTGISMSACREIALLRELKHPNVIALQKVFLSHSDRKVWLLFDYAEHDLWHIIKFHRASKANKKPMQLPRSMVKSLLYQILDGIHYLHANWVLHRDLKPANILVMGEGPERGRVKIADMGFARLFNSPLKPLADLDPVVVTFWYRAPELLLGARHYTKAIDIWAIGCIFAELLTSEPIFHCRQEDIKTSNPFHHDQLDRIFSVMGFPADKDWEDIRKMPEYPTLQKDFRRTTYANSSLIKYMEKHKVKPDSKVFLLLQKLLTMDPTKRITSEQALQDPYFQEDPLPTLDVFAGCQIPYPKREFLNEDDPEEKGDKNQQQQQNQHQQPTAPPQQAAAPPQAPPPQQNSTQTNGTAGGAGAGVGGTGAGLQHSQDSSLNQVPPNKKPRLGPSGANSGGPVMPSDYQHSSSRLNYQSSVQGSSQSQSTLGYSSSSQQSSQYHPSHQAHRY", "assay": "Inhibition of human CDK19 at 2000 nM by KINOMEscan assay"}, "[4]": {"molecular_target": "T1, Serine/threonine-protein kinase haspin (Homo sapiens) (UniProt Q8TF76)", "T1 sequence (whole entry)": "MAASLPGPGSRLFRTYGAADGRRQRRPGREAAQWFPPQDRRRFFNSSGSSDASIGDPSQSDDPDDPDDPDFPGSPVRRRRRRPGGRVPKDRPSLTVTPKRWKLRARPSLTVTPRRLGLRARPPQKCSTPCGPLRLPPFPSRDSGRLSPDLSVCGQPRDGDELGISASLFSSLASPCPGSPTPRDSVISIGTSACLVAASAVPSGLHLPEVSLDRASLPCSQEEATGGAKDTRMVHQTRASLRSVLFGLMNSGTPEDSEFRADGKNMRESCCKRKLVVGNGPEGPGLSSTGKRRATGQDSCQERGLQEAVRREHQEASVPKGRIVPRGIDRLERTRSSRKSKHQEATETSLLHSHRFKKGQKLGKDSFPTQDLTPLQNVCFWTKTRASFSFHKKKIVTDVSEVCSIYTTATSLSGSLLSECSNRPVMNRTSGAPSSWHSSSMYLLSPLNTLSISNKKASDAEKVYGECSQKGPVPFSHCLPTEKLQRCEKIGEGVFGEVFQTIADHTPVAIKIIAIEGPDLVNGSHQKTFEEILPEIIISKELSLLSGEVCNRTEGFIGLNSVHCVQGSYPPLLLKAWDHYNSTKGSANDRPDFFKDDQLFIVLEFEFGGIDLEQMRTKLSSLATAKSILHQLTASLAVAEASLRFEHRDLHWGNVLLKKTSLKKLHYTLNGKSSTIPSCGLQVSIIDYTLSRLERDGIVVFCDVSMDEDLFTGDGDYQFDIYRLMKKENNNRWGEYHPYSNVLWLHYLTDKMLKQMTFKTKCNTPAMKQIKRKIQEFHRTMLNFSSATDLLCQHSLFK", "assay": "Inhibition of human HASPIN at 2000 nM by KINOMEscan assay"}, "[5]": {"molecular_target": "T2, Mitogen-activated protein kinase kinase kinase kinase 2 (Homo sapiens) (UniProt Q12851)", "T2 sequence (whole entry)": "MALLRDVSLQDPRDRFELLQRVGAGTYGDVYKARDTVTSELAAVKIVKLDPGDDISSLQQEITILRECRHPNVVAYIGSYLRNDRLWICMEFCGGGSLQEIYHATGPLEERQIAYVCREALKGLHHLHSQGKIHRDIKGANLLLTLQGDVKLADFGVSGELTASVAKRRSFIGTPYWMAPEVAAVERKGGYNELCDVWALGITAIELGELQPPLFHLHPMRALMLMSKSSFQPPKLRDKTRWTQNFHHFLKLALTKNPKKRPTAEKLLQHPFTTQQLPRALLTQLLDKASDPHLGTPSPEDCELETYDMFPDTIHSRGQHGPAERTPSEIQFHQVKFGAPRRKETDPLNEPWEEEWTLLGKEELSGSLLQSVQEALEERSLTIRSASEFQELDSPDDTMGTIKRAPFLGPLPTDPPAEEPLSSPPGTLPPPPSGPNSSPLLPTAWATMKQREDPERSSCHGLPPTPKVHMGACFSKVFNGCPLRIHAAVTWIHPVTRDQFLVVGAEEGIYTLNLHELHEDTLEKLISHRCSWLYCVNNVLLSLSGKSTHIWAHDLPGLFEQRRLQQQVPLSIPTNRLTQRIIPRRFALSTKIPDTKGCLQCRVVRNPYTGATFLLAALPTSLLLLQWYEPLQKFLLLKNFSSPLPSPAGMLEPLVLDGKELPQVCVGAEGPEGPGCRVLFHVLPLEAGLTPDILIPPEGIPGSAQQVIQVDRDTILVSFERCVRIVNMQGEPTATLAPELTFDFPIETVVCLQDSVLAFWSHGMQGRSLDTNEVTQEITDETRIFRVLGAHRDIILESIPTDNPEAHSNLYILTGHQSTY", "assay": "Inhibition of human MAP4K2 at 2000 nM by KINOMEscan assay"}, "[6]": {"molecular_target": "T3, Myosin-IIIb (Homo sapiens) (UniProt Q8WXR4)", "T3 sequence (whole entry)": "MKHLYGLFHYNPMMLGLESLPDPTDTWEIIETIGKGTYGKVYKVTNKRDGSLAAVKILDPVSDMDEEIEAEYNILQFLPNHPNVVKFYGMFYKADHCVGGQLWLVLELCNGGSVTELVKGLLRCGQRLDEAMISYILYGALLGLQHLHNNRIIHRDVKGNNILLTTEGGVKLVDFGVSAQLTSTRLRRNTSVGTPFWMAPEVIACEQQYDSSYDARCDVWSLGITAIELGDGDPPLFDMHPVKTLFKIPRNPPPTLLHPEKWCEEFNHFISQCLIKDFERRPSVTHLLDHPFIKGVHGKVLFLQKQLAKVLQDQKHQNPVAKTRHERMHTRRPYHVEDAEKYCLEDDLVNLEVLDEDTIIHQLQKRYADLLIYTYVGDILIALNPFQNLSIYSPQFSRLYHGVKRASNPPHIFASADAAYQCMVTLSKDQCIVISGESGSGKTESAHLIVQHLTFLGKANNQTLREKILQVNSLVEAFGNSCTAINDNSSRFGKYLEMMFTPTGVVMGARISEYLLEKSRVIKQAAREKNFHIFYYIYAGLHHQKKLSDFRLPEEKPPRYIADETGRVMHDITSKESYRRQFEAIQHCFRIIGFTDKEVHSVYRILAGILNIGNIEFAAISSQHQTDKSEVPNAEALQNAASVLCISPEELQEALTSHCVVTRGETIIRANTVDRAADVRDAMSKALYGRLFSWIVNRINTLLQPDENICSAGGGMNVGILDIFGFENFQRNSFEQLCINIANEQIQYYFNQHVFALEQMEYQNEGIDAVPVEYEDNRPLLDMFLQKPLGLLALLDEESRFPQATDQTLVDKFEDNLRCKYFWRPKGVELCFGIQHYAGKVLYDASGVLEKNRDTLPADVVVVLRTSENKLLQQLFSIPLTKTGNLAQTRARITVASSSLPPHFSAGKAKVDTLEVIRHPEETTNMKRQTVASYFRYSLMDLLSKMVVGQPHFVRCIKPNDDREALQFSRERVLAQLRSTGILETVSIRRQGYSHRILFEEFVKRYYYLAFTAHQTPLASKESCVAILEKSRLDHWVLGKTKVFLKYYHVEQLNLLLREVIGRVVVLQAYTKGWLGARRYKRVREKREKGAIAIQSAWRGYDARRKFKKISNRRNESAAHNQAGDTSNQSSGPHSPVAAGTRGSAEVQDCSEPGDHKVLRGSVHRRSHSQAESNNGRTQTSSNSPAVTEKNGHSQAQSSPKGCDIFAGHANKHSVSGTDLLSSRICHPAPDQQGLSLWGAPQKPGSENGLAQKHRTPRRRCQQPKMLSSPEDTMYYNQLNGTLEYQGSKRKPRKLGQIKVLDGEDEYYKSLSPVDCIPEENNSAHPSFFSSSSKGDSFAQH", "assay": "Inhibition of human MYO3B at 2000 nM by KINOMEscan assay"}, "[7]": {"molecular_target": "T4, Cyclin-dependent kinase 8/19 (Homo sapiens) (UniProt P49336+Q9BWU1)", "T4 sequence (P49336 whole entry, looked up)": "as the sequence (P49336 whole entry) above", "T4 sequence (Q9BWU1 whole entry, looked up)": "as the sequence (Q9BWU1 whole entry) above", "assay": "Inhibition of CDK8/CDK19 in HEK293 cells assessed as reduction in JUN expression at 1 uM incubated for 2 hrs and measured after 24 hrs of compound wash-off", "assay_type": "cell-based"}, "[8]": {"molecular_target": "T4, Cyclin-dependent kinase 8/19 (Homo sapiens)", "assay": "Inhibition of CDK8/CDK19 in HEK293 cells assessed as reduction in MYC expression at 1 uM incubated for 2 hrs and measured after 24 hrs of compound wash-off", "assay_type": "cell-based"}, "[9]": {"assay": "Metabolic stability of compound in human hepatocytes assessed as metabolic conversion rate by LC/MS/MS analysis", "assay_type": "ADME, cell-based, Hepatocyte"}, "[10]": {"assay": "Elimination rate in female FVB mouse at 19 mg/kg, ip by LC/MS/MS analysis", "assay_type": "ADME, organism-based", "conditions": "in vivo"}, "[11]": {"assay": "Inhibition of prostate specific antigen (PSA) production in human LNCaP C4-2 cells measured after 4 days by ELISA assay", "assay_type": "functional, cell-based", "conditions": "LNCaP C4-2, 96 h"}, "[12]": {"assay": "AUC (0-8 h) in female FVB mouse at 30 mg/kg, po", "assay_type": "ADME, organism-based", "set-up": "time < 8 hr, route oral, dose 30 mg/kg", "conditions": "in vivo"}, "[13]": {"assay": "Half-life in female FVB mice at 30 mg/kg, po", "assay_type": "ADME, organism-based", "conditions": "mouse, in vivo"}, "LNCaP C4-2": {"test_system": "LNCaP C4-2", "assay": "Antitumor activity against human C4-2 cells xenografted in male NcrNU mouse assessed as decrease in PSA mRNA levels in tumor at 40 mg/kg, po administered for 4 days", "assay_type": "functional, organism-based"}, "[14]": {"assay": "Drug uptake in tumor of male NcrNU mouse xenografted with human C4-2 cells at 40 mg/kg, po administered for 4 days", "assay_type": "ADME, organism-based, Neoplasm, LNCaP C4-2", "conditions": "in vivo, 96 h"}, "4T1": {"test_system": "4T1", "assay": "Antitumour activity against mouse 4T1 cells xenografted in female Balb/c mouse assessed as increase in animal survival at 40 mg/kg, po administered twice per day", "assay_type": "functional, organism-based"}, "[15]": {"assay": "Ratio of tumor to blood biodistribution in male NcrNU mouse xenografted with 22Rv1 human xenografts at 20 mg/kg, ip", "assay_type": "ADME, organism-based, Serum/Tumor"}, "[16]": {"molecular_target": "T3, Myosin-IIIb (Homo sapiens)", "assay": "Inhibition of human MYO3B by DiscoverX assay"}, "[17]": {"assay": "AUC in female FVB mouse at 27 mg/kg, ip by LC/MS/MS analysis", "assay_type": "ADME, organism-based", "set-up": "dose 27 mg/kg", "conditions": "in vivo"}, "[18]": {"assay": "Elimination rate in female FVB mouse at 27 mg/kg, ip by LC/MS/MS analysis", "assay_type": "ADME, organism-based", "conditions": "in vivo"}, "[19]": {"assay": "Half-life in female FVB mouse at 27 mg/kg, ip by LC/MS/MS analysis", "assay_type": "ADME, organism-based", "conditions": "in vivo"}}, "note": "Active and inactive are the calls of the source. No cut-off for these calls is given here.", "data": [{"smiles": "Brc1ccc2nccc(NCCc3ccccc3)c2c1", "values": [{"measurement": "inhibition", "setting": "[1]", "value": 10, "unit": "%"}]}, {"smiles": "Clc1ccc2nccc(NCCc3ccccc3)c2c1", "values": [{"measurement": "inhibition", "setting": "[1]", "value": 8, "unit": "%"}]}, {"smiles": "CN1CCN(C(=O)c2ccc3cc(CCNc4ccnc5ccc(C#N)cc45)ccc3c2)CC1", "values": [{"measurement": "inhibition", "setting": "[2]", "value": "> 65", "unit": "%"}, {"measurement": "inhibition", "setting": "[3]", "value": "> 65", "unit": "%"}, {"measurement": "inhibition", "setting": "[4]", "value": "> 65", "unit": "%"}, {"measurement": "inhibition", "setting": "[5]", "value": "> 65", "unit": "%"}, {"measurement": "inhibition", "setting": "[6]", "value": "> 65", "unit": "%"}, {"measurement": "inhibition", "setting": "[7]", "value": "Active"}, {"measurement": "inhibition", "setting": "[8]", "value": "Active"}, {"measurement": "Stabilty", "setting": "[9]", "value": "Stable"}, {"measurement": "k el", "setting": "[10]", "value": 0.000261, "unit": "s⁻¹"}, {"measurement": "IC50", "setting": "[11]", "value": 82, "unit": "nM"}, {"measurement": "AUC(0-t) at 8 h", "setting": "[12]", "value": 817, "unit": "ng·h/mL"}, {"measurement": "half-life", "setting": "[13]", "value": 228, "unit": "min"}, {"measurement": "Activity", "setting": "LNCaP C4-2", "value": "Active"}, {"measurement": "Drug uptake", "setting": "[14]", "value": "Active"}, {"measurement": "Activity", "setting": "4T1", "value": "Active"}, {"measurement": "Kp", "setting": "[15]", "value": 5}]}, {"smiles": "CN1CCN(C(=O)c2ccc3cc(CCNc4ncnc5ccc(C#N)cc45)ccc3c2)CC1", "note": "[SENEXIN B]", "values": [{"measurement": "inhibition", "setting": "[16]", "value": "inactive"}, {"measurement": "Stabilty", "setting": "[9]", "value": "Unstable"}, {"measurement": "AUC", "setting": "[17]", "value": 1760, "unit": "ng·h/mL"}, {"measurement": "k el", "setting": "[18]", "value": 0.00111, "unit": "s⁻¹"}, {"measurement": "half-life", "setting": "[19]", "value": 10.2, "unit": "min"}, {"measurement": "IC50", "setting": "[11]", "value": 222, "unit": "nM"}]}]}
